Laboratory results from ChEMBL document CHEMBL1129276, “Synthesis of 2'-aminomethyl derivatives of N-(2-(phosphonomethoxy)ethyl) nucleotide analogues as potential antiviral agents” (1996).
Converted amounts (≈) assume the structure as drawn.

Columns and labels:
Assay type in all cases: functional
HEL [1] = experiment: Compound was tested in vitro for Minimum inhibitory concentration required to reduce CMV(AD-169) induced cytopathicity in HEL cells; settings: Homo sapiens
HEL [2] = experiment: Compound was tested in vitro for Minimum inhibitory concentration required to reduce VZV TK+(OKA) induced cytopathicity in HEL cells; settings: Homo sapiens
HEL [3] = experiment: Compound was tested in vitro for Minimum inhibitory concentration required to reduce VZV TK+(YS) induced cytopathicity in HEL cells; settings: Homo sapiens
C3H/3T3 = experiment: Compound was tested in vitro for Minimum inhibitory concentration required to reduce MSV induced cytopathicity in murine C3H/3T3 embryo fibroblasts; settings: Mus musculus
E6SM = experiment: Compound was tested in vitro for minimum inhibitory concentration required to reduce HSV-1(KOS) induced cytopathicity in E6SM cells; settings: Homo sapiens
HEL [4] = experiment: Compound was tested in vitro for Minimum inhibitory concentration required to reduce CMV(Davis) induced cytopathicity in HEL cells; settings: Homo sapiens
HEL [5] = experiment: Compound was tested in vitro for Minimum inhibitory concentration required to reduce VZV TK-(YS/R) induced cytopathicity in HEL cells; settings: Homo sapiens
HEL [6] = experiment: Minimum inhibitory concentration required to reduce VZV TK-(07-1) induced cytopathicity in HEL cells; settings: Homo sapiens
MT4 [7] = experiment: Compound was tested in vitro for Minimum inhibitory concentration required to reduce CMV(AD-169) induced cytopathicity in Human MT-4 cells
MT4 [8] = experiment: Compound was tested in vitro for Minimum inhibitory concentration required to reduce CMV(Davis) induced cytopathicity in Human MT-4 cells
MT4 [9] = experiment: Compound was tested in vitro for Minimum inhibitory concentration required to reduce HSV-1 TK-(B2006) induced cytopathicity in Human MT-4 cells
MT4 [10] = experiment: Compound was tested in vitro for Minimum inhibitory concentration required to reduce HSV-1(IIIb) induced cytopathicity in Human MT-4 cells
MT4 [11] = experiment: Compound was tested in vitro for Minimum inhibitory concentration required to reduce HSV-2(ROD) induced cytopathicity in Human MT-4 cells
MT4 [12] = experiment: Compound was tested in vitro for Minimum inhibitory concentration required to reduce VZV TK+(OKA) induced cytopathicity in Human MT-4 cells
MT4 [13] = experiment: Compound was tested in vitro for Minimum inhibitory concentration required to reduce VZV TK+(YS) induced cytopathicity in Human MT-4 cells
MT4 [14] = experiment: Compound was tested in vitro for Minimum inhibitory concentration required to reduce VZV TK-(YS/R) induced cytopathicity in Human MT-4 cells
MT4 [15] = experiment: Compound was tested in vitro for minimum inhibitory concentration required to reduce HSV-1(KOS) induced cytopathicity in Human MT-4 cells
MT4 [16] = experiment: Minimum inhibitory concentration required to reduce VZV TK-(07-1) induced cytopathicity in Human MT-4 cells
HEL [17] = experiment: Compound was tested in vitro for Minimum inhibitory concentration required to reduce VZV TK-(07-1) induced cytopathicity in HEL cells; settings: Homo sapiens
HEL [18] = experiment: Compound was tested in vitro for Minimum inhibitory concentration required to reduce CMV (AD-169) induced cytopathicity in HEL cells; settings: Homo sapiens

| SMILES | MIC (HEL [1]) [µg/mL] | MIC (HEL [2]) [µg/mL] | MIC (HEL [3]) [µg/mL] | MIC (HEL [4]) [µg/mL] | MIC (HEL [5]) [µg/mL] | MIC (HEL [6]) [µg/mL] | MIC (MT4 [7]) [µg/mL] | MIC (MT4 [8]) [µg/mL] | MIC (MT4 [12]) [µg/mL] | MIC (MT4 [13]) [µg/mL] | MIC (MT4 [14]) [µg/mL] | also measured |
| --- | --- | --- | --- | --- | --- | --- | --- | --- | --- | --- | --- | --- |
| C[N+](C)(C)CC(Cn1cnc2c(O)nc(N)nc21)OCP(=O)(O)O (stereo unspecified) | > 50000 | > 50000 | > 50000 |  |  |  |  |  |  |  |  |  |
| Nc1ncnc2c1ncn2CC(CN1CCOCC1)OCP(=O)(O)O (stereo unspecified) | > 50000 | > 50000 | > 50000 | > 50000 | > 50000 | > 50000 |  |  |  |  |  | MIC (C3H/3T3): 25000 µg/mL (≈ 67100 µM); MIC (E6SM): 70000 µg/mL (≈ 188000 µM) |
| Nc1ncnc2c1ncn2CCOCP(=O)(O)O [ADEFOVIR] |  |  |  |  |  |  | 28 (≈ 102 µM) | 29 (≈ 106 µM) | 25 (≈ 91.5 µM) | 31 (≈ 113 µM) | 14 (≈ 51.2 µM) | MIC (MT4 [9]): 20 µg/mL (≈ 73.2 µM); MIC (MT4 [10]): 1.5 µg/mL (≈ 5.49 µM); MIC (MT4 [11]): 1.5 µg/mL (≈ 5.49 µM); MIC (MT4 [15]): 7 µg/mL (≈ 25.6 µM); MIC (MT4 [16]): 14 µg/mL (≈ 51.2 µM) |
| NCC(Cn1cnc2c(N)ncnc21)OCP(=O)(O)O (stereo unspecified) |  |  |  |  |  |  | 15 (≈ 49.6 µM) | 35 (≈ 116 µM) | 11 (≈ 36.4 µM) | 7 (≈ 23.2 µM) | 7 (≈ 23.2 µM) |  |
| C[N+](C)(C)CC(Cn1cnc2c(N)ncnc21)OCP(=O)(O)O (stereo unspecified) | > 50000 | > 50000 | > 50000 | > 50000 |  |  |  |  |  |  |  | MIC (HEL [17]): > 50000 µg/mL |
| CN(C)CC(Cn1cnc2c(N)ncnc21)OCP(=O)(O)O (stereo unspecified) | > 20000 | > 20000 | > 20000 | > 20000 | > 20000 | > 20000 |  |  |  |  |  |  |
| Nc1ncnc2c1ncn2C[C@@H](CO)OCP(=O)(O)O |  |  |  |  |  |  | 0.15 (≈ 0.495 µM) | 0.2 (≈ 0.66 µM) | 0.03 (≈ 0.0989 µM) | 0.05 (≈ 0.165 µM) | 0.01 (≈ 0.033 µM) | MIC (MT4 [9]): 0.1 µg/mL (≈ 0.33 µM); MIC (MT4 [10]): > 20 µg/mL; MIC (MT4 [11]): > 20 µg/mL; MIC (MT4 [15]): 0.2 µg/mL (≈ 0.66 µM); MIC (MT4 [16]): 0.04 µg/mL (≈ 0.132 µM) |
| Nc1ncnc2c1ncn2CC(CNC(=O)c1ccccc1C(=O)O)OCP(=O)(O)O (stereo unspecified) | > 50000 | > 50000 | > 50000 | > 50000 | > 50000 | > 50000 |  |  |  |  |  |  |
| Nc1nc(N)c2ncn(CC(CNC(=O)c3ccccc3C(=O)O)OCP(=O)(O)O)c2n1 (stereo unspecified) | > 50000 | > 50000 | > 50000 | > 50000 | > 50000 | > 50000 |  |  |  |  |  |  |
| C[N+](C)(C)CC(Cn1cnc2c(N)nc(N)nc21)OCP(=O)(O)O (stereo unspecified) |  |  | > 50000 |  |  |  |  |  |  |  |  | MIC (HEL [18]): > 50000 µg/mL |
